Measured values as given in patent US8722580B2, “Agent for inhibiting cytokinin signaling” (Sumitomo Chemical Company, Limited, priority 2006, dated 2014).

Key:
cytokinin receptor CRE1 = target: T1, cytokinin receptor CRE1 (Arabidopsis thaliana, UniProt Q9C5U0, S567G/T1018A); test: Inhibition of intracellular signaling from plant-derived cytokinin receptor, growth of transformed yeast cell TM182-CRE1; type: cell-based; settings: for Relative growth rate (%) in test section of test substance to control section, Transformed cell TM182-CRE1 / Activity (%) of test substance for inhibiting intracellular signaling from plant-derived cytokinin receptor of cell: trans-zeatin 0.6 ppm, chemical substance 2 ppm; for Relative growth rate (%) in test section of test substance to control section, Transformed cell TM182-CRE1: 30° C., 24 hours, turbidity OD 600; for Activity (%) of test substance for inhibiting intracellular signaling from plant-derived cytokinin receptor of cell: = 100 − relative growth rate of TM182-CRE1
T1 construct: expressed in transfected cells; host or cells: Saccharomyces cerevisiae TM182 (sln1Δ) transformed with p415CYC-CRE1
T1 sequence (Q9C5U0 24-1080 S567G/T1018A): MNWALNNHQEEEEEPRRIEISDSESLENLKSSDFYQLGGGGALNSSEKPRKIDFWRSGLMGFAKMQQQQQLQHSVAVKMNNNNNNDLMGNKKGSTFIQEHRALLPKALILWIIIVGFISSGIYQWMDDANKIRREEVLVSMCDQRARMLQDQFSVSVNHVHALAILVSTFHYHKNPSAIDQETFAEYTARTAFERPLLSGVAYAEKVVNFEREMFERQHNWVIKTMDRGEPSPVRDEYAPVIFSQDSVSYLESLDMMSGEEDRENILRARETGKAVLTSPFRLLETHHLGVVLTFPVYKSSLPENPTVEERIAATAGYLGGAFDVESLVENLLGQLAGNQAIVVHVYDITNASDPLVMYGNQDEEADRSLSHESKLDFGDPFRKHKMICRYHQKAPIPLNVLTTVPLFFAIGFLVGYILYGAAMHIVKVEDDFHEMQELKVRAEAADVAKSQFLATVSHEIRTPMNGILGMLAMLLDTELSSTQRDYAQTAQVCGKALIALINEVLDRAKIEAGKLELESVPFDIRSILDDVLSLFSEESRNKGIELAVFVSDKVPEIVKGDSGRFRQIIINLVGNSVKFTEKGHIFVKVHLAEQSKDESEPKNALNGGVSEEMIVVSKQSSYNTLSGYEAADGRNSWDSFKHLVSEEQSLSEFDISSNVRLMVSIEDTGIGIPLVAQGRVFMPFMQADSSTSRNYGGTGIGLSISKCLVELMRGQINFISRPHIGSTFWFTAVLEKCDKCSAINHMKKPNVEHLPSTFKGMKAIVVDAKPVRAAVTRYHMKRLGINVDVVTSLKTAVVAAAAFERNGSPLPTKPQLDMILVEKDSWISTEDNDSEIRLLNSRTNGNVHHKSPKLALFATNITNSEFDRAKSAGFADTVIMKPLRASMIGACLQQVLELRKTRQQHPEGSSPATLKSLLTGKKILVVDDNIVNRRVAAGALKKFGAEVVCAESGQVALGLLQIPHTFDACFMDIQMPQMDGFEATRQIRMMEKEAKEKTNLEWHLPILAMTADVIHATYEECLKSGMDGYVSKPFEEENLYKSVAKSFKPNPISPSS
Procedure: (§1) The transformed cell TM182-CRE1 and the transformed cell TM182-p415CYC1 obtained in Example 6 were each inoculated in 10 ml of a DOLU+Gal medium, and preincubated at 30° C. for 18 hours to obtain a preincubation liquid for each of the transformed cells. The preincubation liquid was diluted with a DOLU+Glu medium for the transformed cell TM182-CRE1 or with a DOLU+Gal medium for the transformed cell TM182-p415CYC1 until OD600=0.1 was reached, to obtain a preincubation dilution for each of the transformed cells.
(§2) To each well of a 96-well plate was added 1 μl of a 200 ppm solution of a test substance in dimethyl sulfoxide (DMSO) to prepare an Assay plate. At the same time, as controls, only 1 μl of DMSO was added to a part of wells. An assay plate for the transformed cell TM182-CRE1 and an assay plate for the transformed cell TM182-p415CYC1 were prepared.
(§3) A 10,000 ppm solution of trans-zeatin (cytokinin) in DMSO was 50-fold diluted with a DOLU+Gul medium to 200 ppm. The 200 ppm trans-zeatin solution was added in an amount of 3/1,000 volume to each of the above-described preincubation dilution to prepare each preincubation dilution containing trans-zeatin at 0.6 ppm. The 0.6 ppm preincubation dilution was added in an amount of 100 μl to each wells of the assay plate for each transformed cell. The plates were incubated at 30° C. for 24 hours. Then, turbidity (OD 600) of each well was measured by using a plate reader. The activity of the test substance for inhibiting intracellular signaling from a plant-derived cytokinin receptor of a cell was tested by comparing the measured turbidity with the turbidity of the control well.
(§4) (Relative growth rate in test section to control section) [%]=[(Turbidity in test section)−(Turbidity in blank)]/[(Turbidity in control section)−(Turbidity in blank)]×100 (Activity of inhibiting intracellular signaling from plant-derived cytokinin receptor of cell) [%]=100−(Relative growth rate in test section to control section)
(§5) In all cases, the existing concentration of trans-zeatin was adjusted to 0.6 ppm and the existing concentration of a chemical substance was adjusted to 2 ppm.
(§6) In all cases, the existing concentration of trans-zeatin was adjusted to 0.6 ppm and the existing concentration of a chemical substance was adjusted to 2 […].

Arabidopsis thaliana [1] = test: Root growth-promoting activity test (Example 9); type: in vivo; settings: main root length vs control section, 22° C., 10 days
Procedure: (§7) Enshi standard medium having the following composition (see Table 10) was prepared. To cluster tubes was dispensed each 4 μl of a solution of a chemical substance in DMSO to a final concentration of 0.001 ppm to 10 ppm, and then, was dispensed each 600 μl of the sterilized Enshi standard medium. Then the resulting solution was well mixed. In each of the cluster tubes, 10-20 seeds of Arabidopsis thaliana were sown, and cultured at 22° C. for 10 days in the light. Then, the length of main roots (average main roots) generated from the seeds of Arabidopsis thaliana was measured. An average of eight repeats was determined, and a root growth rate was determined according to the following equation.
(§8) Root growth rate (%)=(Average main root length in chemical substance-treated section)/(Average main root length in control section)×100

[2] = tested on: transformed cell TM182-p415CYC1; test: Control growth test with transformed yeast cell TM182-p415CYC1 (toxicity to yeast); type: cell-based; settings: trans-zeatin 0.6 ppm; chemical substance 2 ppm; 30° C., 24 hours; turbidity OD 600
Procedure: as §1, §2, §3, §4, §5, §6

Arabidopsis thaliana [3] = test: Root growth-promoting activity test (Example 22); type: in vivo; settings: main root length vs control section, 22° C., 10 days
Procedure: as §7, with “18)” for “10)”
as §8
Enshi standard medium determined having the following composition (Table 18) was prepared. A DMSO solution of a chemical substance was dispensed by 4 μl to cluster tubes to a final concentration of 0.001 ppm to 10 ppm and the sterilized Enshi standard medium was dispensed by 600 μl and then the resulting solution was well mixed. 10-20 seeds of A. thaliana per cluster tube were sown in the cluster tubes. After culture at 22° C. for 10 days in bright light, the length of main roots (average main roots) took from seeds of A. thaliana was measured. An average of eight repeats was determined and the root growth rate was determined.
Root growth rate (%)=(Average main root length of chemical substance-treated section)/(Average main root length of control section)×100

[4] = Arabidopsis thaliana, 240 h, test final concentration 5 ppm (concentration with highest root growth rate)
[5] = test final concentration 0.625 ppm (highest root growth rate)
[6] = test final concentration 0.625 ppm (concentration with highest root growth rate)
[7] = test final concentration 2.5 ppm (highest root growth rate)
[8] = test final concentration 2.5 ppm (concentration with highest root growth rate)
[9] = test final concentration 5 ppm (highest root growth rate)
[10] = test final concentration 5 ppm (concentration with highest root growth rate)
[11] = test final concentration 1.25 ppm (highest root growth rate)
[12] = test final concentration 1.25 ppm (concentration with highest root growth rate)

Structure (SMILES) | melting point | Relative growth rate (%) in test section of test substance to control section, Transformed cell TM182-CRE1 (cytokinin receptor CRE1) | Relative growth rate (%) in test section of test substance to control section, Transformed cell TM182-p415CYC1 [2] | Activity (%) of test substance for inhibiting intracellular signaling from plant-derived cytokinin receptor of cell (cytokinin receptor CRE1) | other results
OCCSc1nc(-c2ccccc2)c2cc(Cl)ccc2n1 [Ie3-1, 6-chloro-2-(2-hydroxyethylthio)-4-phenylquinazoline] | 124.4 °C | 2.3% | 110.7% | – | inhibition at 2 ppm (cytokinin receptor CRE1; read-out: Activity (%) of test substance for inhibiting intracellular signaling from plant-derived cytokinin receptor of cell): 97.7%; activity at 5 ppm (Arabidopsis thaliana [1]; [4]): 121%
SCCNc1nc(-c2ccccc2)c2cc(Cl)ccc2n1 [Ic3-13, 6-chloro-2-(2-mercaptoethylamino)-4-phenylquinazoline] | 165.9 °C | – | – | – | activity at 10 ppm (Arabidopsis thaliana [1]; Arabidopsis thaliana, 240 h, test final concentration 10 ppm (concentration with highest root growth rate)): 140%
Clc1cc(Cl)c2nc(Cl)nc(-c3ccccc3)c2c1 [Ia1-12, 2,6,8-trichloro-4-phenylquinazoline] | 160.3 °C | – | – | – | –
CC(=O)SCCNc1nc(-c2ccccc2)c2cc(Cl)ccc2n1 [Ic3-14, 2-(2-acetylthioethylamino)-6-chloro-4-phenylquinazoline] | 128.9 °C | – | – | – | activity at 2.5 ppm (Arabidopsis thaliana [1]; Arabidopsis thaliana, 240 h, test final concentration 2.5 ppm (concentration with highest root growth rate)): 126%
OCCOCCNc1nc(-c2ccccc2)c2cc(Cl)ccc2n1 [Ic3-40] | – | 0.7% | 123.4% | 99.3% | Root growth-promoting activity (root growth rate) (Arabidopsis thaliana [3]; [5]): 125.8%; Root growth-promoting activity (root growth rate) (Arabidopsis thaliana [1]; [6]): 125.8%
CC(=CCNc1nc(-c2ccccc2)c2cc(Cl)ccc2n1)CO [Ic3-18] | – | 4.0% | 105.3% | 96.0% | Root growth-promoting activity (root growth rate) (Arabidopsis thaliana [3]; [7]): 139.5%; Root growth-promoting activity (root growth rate) (Arabidopsis thaliana [1]; [8]): 139.5%
COCCCNc1nc(-c2ccccc2)c2cc(Cl)ccc2n1 [Ic3-38] | – | 1.2% | 99.4% | 98.8% | Root growth-promoting activity (root growth rate) (Arabidopsis thaliana [3]; [9]): 141.9%; Root growth-promoting activity (root growth rate) (Arabidopsis thaliana [1]; [10]): 141.9%
COCCNc1nc(-c2ccccc2)c2cc(Cl)ccc2n1 [Ic3-7] | – | 2.8% | 104.1% | 97.2% | Root growth-promoting activity (root growth rate) (Arabidopsis thaliana [3]; [11]): 142.5%; Root growth-promoting activity (root growth rate) (Arabidopsis thaliana [1]; [12]): 142.5%
Clc1ccc2nc(NCC3CCCO3)nc(-c3ccccc3)c2c1 (centres unmarked) [Ic3-37] | – | 3.5% | 114.2% | 96.5% | Root growth-promoting activity (root growth rate) (Arabidopsis thaliana [3]; [9]): 138.5%; Root growth-promoting activity (root growth rate) (Arabidopsis thaliana [1]; [10]): 138.5%
OCCCNc1nc(-c2ccccc2)c2cccc(Cl)c2n1 [Ic11-1] | – | 2.2% | 114.5% | 97.8% | Root growth-promoting activity (root growth rate) (Arabidopsis thaliana [3]; [9]): 143.9%; Root growth-promoting activity (root growth rate) (Arabidopsis thaliana [1]; [10]): 143.9%
Clc1nc(-c2ccccc2)c2cccc(Cl)c2n1 [Ia1-11, 2,8-dichloro-4-phenylquinazoline] | 154.4 °C | – | – | – | –
CCOCCCNc1nc(-c2ccccc2)c2cc(Cl)ccc2n1 [Ic3-46] | – | 1.3% | 92.2% | 98.7% | Root growth-promoting activity (root growth rate) (Arabidopsis thaliana [3]; [7]): 121.6%; Root growth-promoting activity (root growth rate) (Arabidopsis thaliana [1]; [8]): 121.6%
Clc1ccc2nc(NCCSSCCNc3nc(-c4ccccc4)c4cc(Cl)ccc4n3)nc(-c3ccccc3)c2c1 [Ic3-15, bis[2-(6-chloro-4-phenyl-2-quinazolinyl)aminoethyl]disulfide] | 159.2 °C | – | – | – | activity at 5 ppm (Arabidopsis thaliana [1]; [4]): 131%
COC(=O)CNc1nc(-c2ccccc2)c2cc(Cl)ccc2n1 [Ic3-42] | – | −0.7% | 111.5% | 100.7% | Root growth-promoting activity (root growth rate) (Arabidopsis thaliana [3]; [5]): 128.6%; Root growth-promoting activity (root growth rate) (Arabidopsis thaliana [1]; [6]): 128.6%
OCCCCCCNc1nc(-c2ccccc2)c2cc(Cl)ccc2n1 [Ic3-11] | – | 3.9% | 84.6% | 96.1% | Root growth-promoting activity (root growth rate) (Arabidopsis thaliana [3]; [11]): 128.2%; Root growth-promoting activity (root growth rate) (Arabidopsis thaliana [1]; [12]): 128.2%
Nc1nc(-c2ccccc2)c2cc(Cl)cc(Cl)c2n1 [Ic12-4, 2-amino-6,8-dichloro-4-phenylquinazoline] | 212.7 °C | – | – | – | –
